Experimental data taken from publication PMC8624485, “Modeling, Synthesis, and Biological Evaluation of Potential Retinoid-X-Receptor (RXR) Selective Agonists: Analogs of 4-[1-(3,5,5,8,8-Pentamethyl-5,6,7,8-tetrahyro-2-naphthyl)ethynyl]benzoic Acid (Bexarotene) and 6-(Ethyl(4-isobutoxy-3-isopropylphenyl)amino)nicotinic Acid (NEt-4IB)” (International Journal of Molecular Sciences, 2021).

Key:
Format in all cases: cell-based
[1] = target: T1, RXR-LXR heterodimer (LXR/LXRE) (Homo sapiens, UniProt P19793); test: LXRE-luciferase transactivation assay in HEK293 cells; conditions: 100 nM compound alone, HEK293, bexarotene (1) set to 100%
T1 construct: expressed in transfected cells; host or cells: HEK293 cells
T1 sequence (P19793 1-462): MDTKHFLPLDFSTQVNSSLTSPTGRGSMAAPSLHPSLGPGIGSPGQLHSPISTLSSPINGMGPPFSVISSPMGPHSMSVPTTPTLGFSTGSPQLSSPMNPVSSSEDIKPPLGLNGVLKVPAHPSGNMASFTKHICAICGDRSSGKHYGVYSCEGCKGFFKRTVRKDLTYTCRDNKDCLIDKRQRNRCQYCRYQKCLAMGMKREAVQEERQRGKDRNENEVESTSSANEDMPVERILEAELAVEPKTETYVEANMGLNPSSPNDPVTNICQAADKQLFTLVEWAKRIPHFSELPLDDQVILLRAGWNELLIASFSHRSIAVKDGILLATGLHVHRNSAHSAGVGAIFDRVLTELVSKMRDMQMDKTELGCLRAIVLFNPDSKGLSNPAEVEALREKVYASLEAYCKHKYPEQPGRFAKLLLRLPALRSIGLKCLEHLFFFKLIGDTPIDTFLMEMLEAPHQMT
T1 sequence (Q13133 1-447 partner): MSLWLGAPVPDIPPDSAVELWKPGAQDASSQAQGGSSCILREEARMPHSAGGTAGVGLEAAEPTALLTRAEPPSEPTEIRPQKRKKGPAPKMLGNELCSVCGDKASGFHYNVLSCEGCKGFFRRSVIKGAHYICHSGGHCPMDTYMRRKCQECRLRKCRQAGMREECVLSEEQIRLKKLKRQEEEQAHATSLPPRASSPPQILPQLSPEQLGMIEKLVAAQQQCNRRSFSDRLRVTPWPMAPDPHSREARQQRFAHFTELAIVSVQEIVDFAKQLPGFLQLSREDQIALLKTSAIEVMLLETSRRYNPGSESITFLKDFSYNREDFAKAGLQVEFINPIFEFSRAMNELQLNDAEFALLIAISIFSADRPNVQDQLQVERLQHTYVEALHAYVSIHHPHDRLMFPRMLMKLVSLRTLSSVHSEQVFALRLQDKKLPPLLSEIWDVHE
Method: The activation from this natural LXRE in our system was tested in the presence of either 100 nM RXR agonists alone or in combination with 100 nM of both the RXR agonist and LXR agonist T0901317 (TO). […] The LXRE-mediated assays were performed using human embryonic cells (HEK293) seeded at a density of 60,000 cells/well in a 24-well plate and maintained in DMEM (Hyclone) supplemented with 10% fetal bovine serum, 100 µg/mL streptomycin, 100 U/mL penicillin (Invitrogen, Carlsbad, CA, USA) at 37 degrees Celsius, 5% CO2 for 24 h. The cells were co-transfected with 250 ng of an LXRE-luciferase reporter gene, 50 ng of pSG5-human RXRα, and 20 ng of renilla control plasmid. […] After 24 h post treatment, the cells were lysed and the transcriptional activity mediated by the LXRE was measured using the Dual Luciferase Assay System (Promega, Madison, WI) in a Sirius FB12 luminometer (Berthold Detection Systems, Pforzheim, Germany) according to the manufacturer’s protocol. The data are a compilation of between three and six independent assays with each treatment group dosed in triplicate for each independent assay. […] Bars on all graphs indicate standard deviation of the replicate experiments.
Cells were transfected for 24 h utilizing a liposome-mediated transfection protocol and then treated with the ethanol vehicle, or 100 nM of the indicated compound alone or in combination with 100 nM TO901317 (TO). […] (A) Human HEK-293 cells were transfected and treated as described in Figure 8.

human RARα = target: T2, human RARα (Homo sapiens, UniProt P10276); test: RARE-luciferase reporter assay in HEK293 cells; conditions: HEK293, all-trans-RA set to 100%
T2 construct: expressed in transfected cells; host or cells: HEK293 cells
T2 sequence (P10276 1-462): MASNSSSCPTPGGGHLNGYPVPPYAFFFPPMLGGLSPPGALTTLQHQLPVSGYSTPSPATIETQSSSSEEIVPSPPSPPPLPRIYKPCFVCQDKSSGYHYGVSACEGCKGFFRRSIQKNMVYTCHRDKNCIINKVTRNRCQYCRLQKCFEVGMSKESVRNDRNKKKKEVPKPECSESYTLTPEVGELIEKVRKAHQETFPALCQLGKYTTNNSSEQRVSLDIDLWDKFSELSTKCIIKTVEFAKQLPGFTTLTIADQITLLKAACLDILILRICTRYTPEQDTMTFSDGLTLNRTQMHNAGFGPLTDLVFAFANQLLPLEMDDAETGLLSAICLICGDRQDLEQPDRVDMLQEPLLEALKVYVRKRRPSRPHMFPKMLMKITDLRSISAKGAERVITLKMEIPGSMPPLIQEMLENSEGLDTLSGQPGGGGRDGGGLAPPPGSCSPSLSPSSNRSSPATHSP
Method: Human embryonic kidney cells (HEK293) were plated at 60,000 cells per well in a 24-well plate and maintained as described above. After 24 h, the cells were transfected with 250 ng pTK-DR5(X2)-Luc, 25 ng pCMX-human RARα, and 20 ng renilla utilizing 1.25 µL polyethylenimine (PEI) per well for 24 h. The sequence of the double DR5 RARE is: 5′-[…]-3′ (DR5 responsive elements underlined). The cells were treated with ethanol vehicle (0.1%), all-trans-retinoic acid (RA, the ligand for RAR), or the indicated rexinoid at a final concentration of 10 nM. After 24 h of treatment, the retinoid activity was measured as described above (dual luciferase assay). […] Three independent assays were conducted with triplicate samples for each treatment group. The value for RA was set to 100%. […]

Saccharomyces cerevisiae = Saccharomyces cerevisiae toxicity assay; conditions: 3 h incubation, colony count vs DMSO only control; highest concentration tested 11 µg/µL
Method: These compounds were also assessed for mutagenicity and toxicity in Saccharomyces cerevisiae and the toxicity results are summarized in Table 1. No compound was mutagenic in this assay.
All compounds were tested for toxicity and mutagenicity using a Saccharomyces cerevisiae based assay as described previously. Toxicity was assessed in this assay (Table 1), comparing growth on plates to control treatments. Compounds were solubilized in DMSO at increasing concentrations and cells were incubated with the compounds for 3 h before plating on selective media or YPD to assess toxicity and mutagenicity. Cytotoxicity was assessed as described. Growth of colonies on the full nutrient YPD plate for each treatment was compared to the DMSO only control. The concentration at which 50% cell death (as indicated by colony count compared to DMSO only control) +/−10% cell death is reported as the 50% killing rate. The highest concentration tested was 11 µg/µL.

RXRα = target: T3, RXRα (Homo sapiens, UniProt P19793); test: UAS/Gal4 GFP reporter assay of RXRα activation in UAS-GFP x KMT2A-MLLT3 cells; conditions: RXRα activation; value (SD); Table 1 does not say whether GFP or Luc assay; read-out: EC50 (nM) +/−(SD)
T3 construct: expressed in transfected cells; host or cells: UAS-GFP x KMT2A-MLLT3 cells (retroviral transduction)
T3 sequence (P19793 227-458 limits assumed): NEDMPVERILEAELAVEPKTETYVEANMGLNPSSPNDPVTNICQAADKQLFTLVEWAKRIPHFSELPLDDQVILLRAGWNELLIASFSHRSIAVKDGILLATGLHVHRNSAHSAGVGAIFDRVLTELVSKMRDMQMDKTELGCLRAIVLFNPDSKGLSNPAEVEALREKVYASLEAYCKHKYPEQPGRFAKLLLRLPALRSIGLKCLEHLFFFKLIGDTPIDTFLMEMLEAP
Method: Cells were treated, and after 48 h, GFP measured by a ZE5 Flow Cytometer (Biorad).

RXRA = target: T4, RXRA (Homo sapiens, UniProt P19793); test: ApoA1-Luc luciferase assay in 293T cells with pBABE-RXRA; conditions: pBABE-RXRA and ApoA1-Luc, nonconverged, read-out: EC50 (nM), luciferase (Figure 7C)
T4 construct: expressed in transfected cells; host or cells: 293T cells
T4 sequence (P19793 1-462): T1 sequence (P19793 1-462)
Method: 293T cells were transfected using Lipofectamine 2000 (Invitrogen). Six hours after transfection, the cells were collected and plated into a 48-well plate in 1% BSA media in triplicate and treated with compounds. After 40 h incubation, the cells were harvested and assayed for luciferase (Luc Assay System with Reporter Lysis Buffer, Promega) in a Beckman Coulter LD400 plate reader.

Structure (SMILES)	LXRE Activity (% of Bex) [1]	RARE Activity (%RA at 10 nM) (human RARα)	Cyto-Toxicity (50% Cell Death) (Saccharomyces cerevisiae)	EC50 (RXRα)	EC50 (RXRA)
CCN(c1ccc(C(=O)O)c(F)c1)c1ccc(OCC(C)C)c(C(C)C)c1 [Compound 29, 4-(ethyl(4-isobutoxy-3-isopropylphenyl)amino)-2-fluorobenzoic acid]	61.7 % of Bex	4.0 %RA	1 µg/µL	> 1000 nM	> 1000 nM
CC(C)COc1ccc(-n2nnc3cc(C(=O)O)ccc32)cc1C(C)C [Compound 31, 1-(4-isobutoxy-3-isopropylphenyl)-1H-benzo[d][1,2,3]triazole-5-carboxylic acid]	64.5 % of Bex	3.1 %RA	none	> 1000 nM	> 1000 nM
